Values after ≈ are worked out from the molar mass of the structure shown. Counter-ions that a name gives are not always drawn. Like-named read-outs stand apart in the source and are kept apart here.
Experiments:
[1] = tested on: Acinetobacter calcoaceticus HNR 904; assay: Antibacterial spectrum, MIC by twofold agar dilution method; assay type: cell-based; conditions: HNR904, 10^6 cfu/ml, clinically isolated strain, Gram -, 18 hrs at 37° C
Procedure: (§1) Overnight cultures in Mueller-Hinton broth were suspended by buffered saline gelatin. One loopful of the bacterial suspension (10^6 or 10^8 colony-forming units/ml) was incubated onto the plates containing test compounds. The plates were incubated for 18 hrs at 37° C. The MIC was defined by the lowest concentration of the drug that inhibited visible growth of bacteria.

[2] = tested on: Acinetobacter calcoaceticus HNR 916; assay: as above; assay type: cell-based; conditions: HNR916, 10^6 cfu/ml, clinically isolated strain, Gram -, 18 hrs at 37° C
Procedure: as §1

[3] = tested on: Acinetobacter calcoaceticus HNR 939; assay: as above; assay type: cell-based; conditions: HNR939, 10^6 cfu/ml, clinically isolated strain, Gram -, 18 hrs at 37° C
Procedure: as §1

Enterobacter cloacae 963 = assay: as above; assay type: cell-based; conditions: 10^6 cfu/ml, standard laboratory strain, Gram -, 18 hrs at 37° C
Procedure: as §1

[4] = tested on: Enterobacter cloacae HNR 1939; assay: as above; assay type: cell-based; conditions: HNR1939, 10^6 cfu/ml, clinically isolated strain, Gram -, 18 hrs at 37° C
Procedure: as §1

[5] = tested on: Enterobacter cloacae HNR 1946; assay: as above; assay type: cell-based; conditions: HNR1946, 10^6 cfu/ml, clinically isolated strain, Gram -, 18 hrs at 37° C
Procedure: as §1

[6] = tested on: Enterococcus faecalis HPC 948; assay: as above; assay type: cell-based; conditions: HPC948, 10^6 cfu/ml, clinically isolated strain, Gram +, 18 hrs at 37° C
Procedure: as §1

[7] = tested on: Enterococcus faecalis HPC 975; assay: as above; assay type: cell-based; conditions: HPC975, 10^6 cfu/ml, clinically isolated strain, Gram +, 18 hrs at 37° C
Procedure: as §1

[8] = tested on: Enterococcus faecalis HPC 984; assay: as above; assay type: cell-based; conditions: HPC984, 10^6 cfu/ml, clinically isolated strain, Gram +, 18 hrs at 37° C
Procedure: as §1

[9] = tested on: Escherichia coli NIHJ JC-2; assay: as above; assay type: cell-based; conditions: NIHJJC2, 10^6 cfu/ml, standard laboratory strain, Gram -, 18 hrs at 37° C
Procedure: as §1

[10] = tested on: Klebsiella pneumoniae HNR 828; assay: as above; assay type: cell-based; conditions: HNR828, 10^6 cfu/ml, clinically isolated strain, Gram -, 18 hrs at 37° C
Procedure: as §1

[11] = tested on: Klebsiella pneumoniae HNR 858; assay: as above; assay type: cell-based; conditions: HNR858, 10^6 cfu/ml, clinically isolated strain, Gram -, 18 hrs at 37° C
Procedure: as §1

[12] = tested on: Klebsiella pneumoniae HNR 869; assay: as above; assay type: cell-based; conditions: HNR869, 10^6 cfu/ml, clinically isolated strain, Gram -, 18 hrs at 37° C
Procedure: as §1

[13] = tested on: Pseudomonas aeruginosa HNR 1472; assay: as above; assay type: cell-based; conditions: HNR1472, 10^6 cfu/ml, clinically isolated strain, Gram -, 18 hrs at 37° C
Procedure: as §1

[14] = tested on: Pseudomonas aeruginosa HNR 1489; assay: as above; assay type: cell-based; conditions: HNR1489, 10^6 cfu/ml, clinically isolated strain, Gram -, 18 hrs at 37° C
Procedure: as §1

[15] = tested on: Pseudomonas aeruginosa HNR 1537; assay: as above; assay type: cell-based; conditions: HNR1537, 10^6 cfu/ml, clinically isolated strain, Gram -, 18 hrs at 37° C
Procedure: as §1

[16] = tested on: Pseudomonas aeruginosa IFO 3445; assay: as above; assay type: cell-based; conditions: IFO3445, 10^6 cfu/ml, standard laboratory strain, Gram -, 18 hrs at 37° C
Procedure: as §1

[17] = tested on: Serratia marcescens HNR 1544; assay: as above; assay type: cell-based; conditions: HNR1544, 10^6 cfu/ml, clinically isolated strain, Gram -, 18 hrs at 37° C
Procedure: as §1

[18] = tested on: Serratia marcescens HNR 1767; assay: as above; assay type: cell-based; conditions: HNR1767, 10^6 cfu/ml, clinically isolated strain, Gram -, 18 hrs at 37° C
Procedure: as §1

[19] = tested on: Serratia marcescens HNR 1792; assay: as above; assay type: cell-based; conditions: HNR1792, 10^6 cfu/ml, clinically isolated strain, Gram -, 18 hrs at 37° C
Procedure: as §1

[20] = tested on: Serratia marcescens IAM 1184; assay: as above; assay type: cell-based; conditions: IAM1184, 10^6 cfu/ml, standard laboratory strain, Gram -, 18 hrs at 37° C
Procedure: as §1

[21] = tested on: Staphylococcuss aureus HPC 292; assay: as above; assay type: cell-based; conditions: 10^6 cfu/ml; clinically isolated strain, Gram +; 18 hrs at 37° C; read-out: MIC
Procedure: as §1

[22] = tested on: Staphylococcuss aureus HPC 527; assay: as above; assay type: cell-based; conditions: 10^6 cfu/ml; clinically isolated strain, Gram +; 18 hrs at 37° C
Procedure: as §1

[23] = tested on: Staphylococuss aureus FDA 209PJC-1; assay: as above; assay type: cell-based; conditions: 10^6 cfu/ml; standard laboratory strain, Gram +; 18 hrs at 37° C
Procedure: as §1

[24] = tested on: Klebsiella pneumoniae PCI-602; assay: as above; assay type: cell-based
Procedure: as §1, with “Minimum inhibitory concentrations (MIC) of test compounds were determined by the twofold agar dilution method (Chemotherapy, 29(1), 76(1981)). Overnight” for “Overnight”

Male mice of ddY strain [25] = assay: Acute toxicity (i.v.); assay type: in vivo; conditions: 270 mg/kg (i.v.)
Procedure: Male mice of ddY strain, 4 weeks old, were used. Test compounds were solved in 0.1N--NaOH solution and neutralized with 0.1N--HCl solution. Each compound was administered intravenously (i.v.) at a dose of 270 mg/kg. […]

Male mice of ddY strain [26] = assay: Convulsion inducing activity in combination with fenbufen; conditions: 30 min after fenbufen 100 mg/kg orally
Procedure: Male mice of ddY strain, 5 weeks old, were used. Fenbufen suspended in 0.5% carboxymethyl cellulose was administered orally at a dose of 100 mg/kg. After thirty minutes, test compounds suspended in 0.5% carboxymethyl cellulose were injected intraperitoneally (i.p.) at a dose of 100 mg/kg or 300 mg/kg.

[27] = tested on: Enterobacter cloacae HNR 1941; assay: Antibacterial spectrum, MIC by twofold agar dilution method; assay type: cell-based; conditions: HNR1941, 10^6 cfu/ml, clinically isolated strain, Gram -, 18 hrs at 37° C
Procedure: as §1

[28] = tested on: Staphylococcuss aureus HPC 308; assay: as above; assay type: cell-based; conditions: 10^6 cfu/ml; clinically isolated strain, Gram +; 18 hrs at 37° C
Procedure: as §1

**Q.** Which results are given for CC1Sc2c(C(=O)O)c(=O)c3cc(F)c(N4CC[C@H](N)C4)c(F)c3n21 (single isomer, unassigned) [Example 27]?
**A.** MIC [1]: 25 µg/mL (≈ 68 µM); MIC [2]: 0.1 µg/mL (≈ 0.272 µM); MIC [3]: 1.56 µg/mL (≈ 4.25 µM); MIC (Enterobacter cloacae 963): 0.05 µg/mL (≈ 0.136 µM); MIC [4]: 0.2 µg/mL (≈ 0.544 µM); MIC [5]: 0.2 µg/mL (≈ 0.544 µM); MIC [6]: 0.78 µg/mL (≈ 2.12 µM); MIC [7]: 6.25 µg/mL (≈ 17 µM); MIC [8]: 0.2 µg/mL (≈ 0.544 µM); MIC [9]: 0.025 µg/mL (≈ 0.068 µM); MIC [10]: 1.56 µg/mL (≈ 4.25 µM); MIC [11]: 0.2 µg/mL (≈ 0.544 µM); MIC [12]: 0.78 µg/mL (≈ 2.12 µM); MIC [13]: 3.13 µg/mL (≈ 8.52 µM); MIC [14]: 0.1 µg/mL (≈ 0.272 µM); MIC [15]: 6.25 µg/mL (≈ 17 µM); MIC [16]: 0.1 µg/mL (≈ 0.272 µM); MIC [17]: 0.05 µg/mL (≈ 0.136 µM); MIC [18]: 6.25 µg/mL (≈ 17 µM); MIC [19]: 1.56 µg/mL (≈ 4.25 µM); MIC [20]: 0.05 µg/mL (≈ 0.136 µM); MIC [21]: 6.25 µg/mL (≈ 17 µM); MIC [22]: 0.05 µg/mL (≈ 0.136 µM); MIC [23]: 0.025 µg/mL (≈ 0.068 µM); MIC ([24]; PCI602, 10^6 cfu/ml, standard laboratory strain, Gram -, 18 hrs at 37° C, read-out: MIC): ≤ 0.003 µg/mL; Number of death/Number of animals (Male mice of ddY strain [25]): 4/10; Number of convulsion induced/Number of animals (Male mice of ddY strain [26]; 100 mg/kg (i.p.)): 0/6; Number of convulsion induced/Number of animals (Male mice of ddY strain [26]; 300 mg/kg (i.p.)): 0/6

**Q.** What does the source list for CC1Sc2c(C(=O)O)c(=O)c3cc(F)c(N4CC[C@H](N)C4)c(Cl)c3n21 (single isomer, unassigned) [Example 29]?
**A.** MIC [2]: 0.1 µg/mL (≈ 0.261 µM); MIC [3]: 1.56 µg/mL (≈ 4.06 µM); MIC (Enterobacter cloacae 963): 0.025 µg/mL (≈ 0.0651 µM); MIC [4]: 0.2 µg/mL (≈ 0.521 µM); MIC [27]: 1.56 µg/mL (≈ 4.06 µM); MIC [5]: 0.2 µg/mL (≈ 0.521 µM); MIC [6]: 0.78 µg/mL (≈ 2.03 µM); MIC [7]: 6.25 µg/mL (≈ 16.3 µM); MIC [8]: 0.2 µg/mL (≈ 0.521 µM); MIC [9]: 0.025 µg/mL (≈ 0.0651 µM); MIC [10]: 1.56 µg/mL (≈ 4.06 µM); MIC [11]: 0.2 µg/mL (≈ 0.521 µM); MIC [12]: 0.39 µg/mL (≈ 1.02 µM); MIC [13]: 3.13 µg/mL (≈ 8.15 µM); MIC [14]: 0.2 µg/mL (≈ 0.521 µM); MIC [15]: 3.13 µg/mL (≈ 8.15 µM); MIC [16]: 0.1 µg/mL (≈ 0.261 µM); MIC [17]: 0.05 µg/mL (≈ 0.13 µM); MIC [18]: 3.13 µg/mL (≈ 8.15 µM); MIC [19]: 0.78 µg/mL (≈ 2.03 µM); MIC [20]: 0.1 µg/mL (≈ 0.261 µM); MIC [21]: 6.25 µg/mL (≈ 16.3 µM); MIC [28]: 0.78 µg/mL (≈ 2.03 µM); MIC [22]: 0.05 µg/mL (≈ 0.13 µM); MIC [23]: 0.05 µg/mL (≈ 0.13 µM); Number of death/Number of animals (Male mice of ddY strain [25]): 3/10; Number of convulsion induced/Number of animals (Male mice of ddY strain [26]; 100 mg/kg (i.p.)): 0/6; Number of convulsion induced/Number of animals (Male mice of ddY strain [26]; 300 mg/kg (i.p.)): 0/6

**Q.** Which results are given for O=C(O)c1cn(C2CC2)c2cc(N3CCNCC3)c(F)cc2c1=O [Reference Drug A, ciprofloxacin hydrochloride, reference compound]?
**A.** MIC ([24]; PCI602, 18 h): 0.012 µg/mL; Number of death/Number of animals (Male mice of ddY strain [25]): 7/10; Number of convulsion induced/Number of animals (Male mice of ddY strain [26]; 100 mg/kg (i.p.)): 4/6; Number of convulsion induced/Number of animals (Male mice of ddY strain [26]; 300 mg/kg (i.p.)): 6/6

Source: patent US5126337A, “Thiazetoquinoline-3-carboxylic acid derivative and a pharmaceutical composition comprising the same” (priority 1989, dated 1992)
